Source: ChEMBL document CHEMBL4507275, “Data for DCP probe BI-2545” (2021)

Columns and labels:
[1] = molecular target: Myosin light chain kinase (Homo sapiens) (UniProt Q32MK0); conditions: Compound concentration 1000.0 nM
[2] = molecular target: Kappa-type opioid receptor (Homo sapiens) (UniProt P41145); conditions: Compound concentration 10.0 uM
[3] = molecular target: Leucine-rich repeat serine/threonine-protein kinase 2 (Homo sapiens) (UniProt Q5S007); conditions: Compound concentration 1000.0 nM
[4] = molecular target: Death-associated protein kinase 1 (Homo sapiens) (UniProt P53355); conditions: Compound concentration 1000.0 nM
[5] = test system: Tyrosine-protein kinase ABL1 (Homo sapiens), P00519 [Q252H]; conditions: Compound concentration 1000.0 nM
[6] = molecular target: Non-receptor tyrosine-protein kinase TNK1 (Homo sapiens) (UniProt Q13470); conditions: Compound concentration 1000.0 nM
[7] = molecular target: Serine/threonine-protein kinase 36 (Homo sapiens) (UniProt Q9NRP7); conditions: Compound concentration 1000.0 nM
[8] = molecular target: Mitogen-activated protein kinase kinase kinase 6 (Homo sapiens) (UniProt O95382); conditions: Compound concentration 1000.0 nM
[9] = molecular target: Phosphatidylinositol 3-kinase catalytic subunit type 3 (Homo sapiens) (UniProt Q8NEB9); conditions: Compound concentration 1000.0 nM
[10] = molecular target: Activin receptor type-2B (Homo sapiens) (UniProt Q13705); conditions: Compound concentration 1000.0 nM
[11] = molecular target: Tyrosine-protein kinase JAK1 (Homo sapiens) (UniProt P23458); conditions: Compound concentration 1000.0 nM
Chain of Tyrosine-protein kinase JAK1 (Homo sapiens) (P23458 whole entry, the tested form may be a part): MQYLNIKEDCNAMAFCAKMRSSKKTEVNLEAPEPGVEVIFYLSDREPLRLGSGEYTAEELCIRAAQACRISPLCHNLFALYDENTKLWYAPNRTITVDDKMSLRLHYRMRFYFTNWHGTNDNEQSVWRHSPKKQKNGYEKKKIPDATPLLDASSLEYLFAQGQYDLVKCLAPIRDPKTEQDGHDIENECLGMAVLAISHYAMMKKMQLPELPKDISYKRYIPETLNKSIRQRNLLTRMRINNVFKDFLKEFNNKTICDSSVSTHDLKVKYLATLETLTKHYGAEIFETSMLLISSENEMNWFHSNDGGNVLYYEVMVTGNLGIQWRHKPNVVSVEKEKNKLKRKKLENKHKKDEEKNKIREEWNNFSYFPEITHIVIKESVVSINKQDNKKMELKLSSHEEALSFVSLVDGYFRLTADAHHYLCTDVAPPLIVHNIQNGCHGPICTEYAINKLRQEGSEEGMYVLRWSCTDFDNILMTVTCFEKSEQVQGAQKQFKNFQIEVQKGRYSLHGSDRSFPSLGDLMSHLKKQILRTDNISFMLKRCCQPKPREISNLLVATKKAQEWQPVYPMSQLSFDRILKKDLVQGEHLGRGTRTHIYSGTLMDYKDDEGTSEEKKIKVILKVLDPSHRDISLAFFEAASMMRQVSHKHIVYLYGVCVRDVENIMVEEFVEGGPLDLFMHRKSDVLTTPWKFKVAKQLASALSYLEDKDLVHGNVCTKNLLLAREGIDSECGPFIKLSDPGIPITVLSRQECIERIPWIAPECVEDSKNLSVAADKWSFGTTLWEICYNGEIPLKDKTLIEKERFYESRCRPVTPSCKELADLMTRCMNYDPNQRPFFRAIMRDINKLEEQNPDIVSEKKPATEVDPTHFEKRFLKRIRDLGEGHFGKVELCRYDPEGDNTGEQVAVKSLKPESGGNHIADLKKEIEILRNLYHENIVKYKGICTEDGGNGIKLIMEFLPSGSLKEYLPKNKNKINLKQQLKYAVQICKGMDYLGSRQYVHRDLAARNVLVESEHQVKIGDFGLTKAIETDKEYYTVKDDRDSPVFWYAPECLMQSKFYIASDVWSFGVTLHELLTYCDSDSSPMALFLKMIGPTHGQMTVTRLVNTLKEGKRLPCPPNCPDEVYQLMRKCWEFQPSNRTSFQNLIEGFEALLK

[12] = molecular target: Phosphatidylinositol 3-kinase C2 domain-containing subunit gamma (Homo sapiens) (UniProt O75747); conditions: Compound concentration 1000.0 nM
[13] = molecular target: Megakaryocyte-associated tyrosine-protein kinase (Homo sapiens) (UniProt P42679); conditions: Compound concentration 1000.0 nM
[14] = molecular target: Mitogen-activated protein kinase kinase kinase 3 (Homo sapiens) (UniProt Q99759); conditions: Compound concentration 1000.0 nM
Chain of Mitogen-activated protein kinase kinase kinase 3 (Homo sapiens) (Q99759 whole entry): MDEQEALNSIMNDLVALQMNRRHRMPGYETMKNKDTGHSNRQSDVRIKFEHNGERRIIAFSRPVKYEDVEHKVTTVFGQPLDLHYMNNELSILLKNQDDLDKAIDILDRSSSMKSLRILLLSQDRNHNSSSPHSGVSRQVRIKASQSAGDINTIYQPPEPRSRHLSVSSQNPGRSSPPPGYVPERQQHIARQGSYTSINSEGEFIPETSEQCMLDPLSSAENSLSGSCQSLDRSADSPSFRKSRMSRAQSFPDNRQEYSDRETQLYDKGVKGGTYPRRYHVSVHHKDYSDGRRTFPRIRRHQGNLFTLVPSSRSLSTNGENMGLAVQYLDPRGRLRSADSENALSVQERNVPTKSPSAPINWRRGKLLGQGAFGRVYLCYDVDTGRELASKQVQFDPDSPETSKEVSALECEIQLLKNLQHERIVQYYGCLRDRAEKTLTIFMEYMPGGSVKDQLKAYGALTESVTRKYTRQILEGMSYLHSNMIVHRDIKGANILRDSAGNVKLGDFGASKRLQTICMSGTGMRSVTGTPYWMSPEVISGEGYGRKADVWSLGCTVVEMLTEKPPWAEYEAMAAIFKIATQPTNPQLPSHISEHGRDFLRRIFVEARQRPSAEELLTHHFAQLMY

[15] = molecular target: Calcium/calmodulin-dependent protein kinase type 1D (Homo sapiens) (UniProt Q8IU85); conditions: Compound concentration 1000.0 nM
[16] = molecular target: LIM domain kinase 1 (Homo sapiens) (UniProt P53667); conditions: Compound concentration 1000.0 nM
[17] = molecular target: GABA-A receptor; anion channel (Rattus norvegicus) (UniProt O09028+P15431+P18506+P18508+P19969+P20236+P23574+P23576+P28471+P28473+P30191+P62813+P63079+P63138+Q91ZM7+Q9ES14); conditions: Compound concentration 10.0 uM
[18] = molecular target: Mitogen-activated protein kinase kinase kinase 12 (Homo sapiens) (UniProt Q12852); conditions: Compound concentration 1000.0 nM
[19] = molecular target: Cyclin-dependent kinase-like 3 (Homo sapiens) (UniProt Q8IVW4); conditions: Compound concentration 1000.0 nM
[20] = molecular target: Mitogen-activated protein kinase kinase kinase kinase 1 (Homo sapiens) (UniProt Q92918); conditions: Compound concentration 1000.0 nM
[21] = molecular target: Myosin-IIIa (Homo sapiens) (UniProt Q8NEV4); conditions: Compound concentration 1000.0 nM
[22] = test system: Receptor-type tyrosine-protein kinase FLT3 (Homo sapiens), P36888 [R834Q]; conditions: Compound concentration 1000.0 nM
[23] = molecular target: Myosin light chain kinase 2, skeletal/cardiac muscle (Homo sapiens) (UniProt Q9H1R3); conditions: Compound concentration 1000.0 nM
[24] = molecular target: Mitogen-activated protein kinase 15 (Homo sapiens) (UniProt Q8TD08); conditions: Compound concentration 1000.0 nM
[25] = molecular target: Serine/threonine-protein kinase MRCK beta (Homo sapiens) (UniProt Q9Y5S2); conditions: Compound concentration 1000.0 nM
[26] = test system: Proto-oncogene tyrosine-protein kinase receptor Ret (Homo sapiens), P07949 [M918T]; conditions: Compound concentration 1000.0 nM
Chain of Proto-oncogene tyrosine-protein kinase receptor Ret (Homo sapiens), P07949 [M918T] (P07949 whole entry M918T): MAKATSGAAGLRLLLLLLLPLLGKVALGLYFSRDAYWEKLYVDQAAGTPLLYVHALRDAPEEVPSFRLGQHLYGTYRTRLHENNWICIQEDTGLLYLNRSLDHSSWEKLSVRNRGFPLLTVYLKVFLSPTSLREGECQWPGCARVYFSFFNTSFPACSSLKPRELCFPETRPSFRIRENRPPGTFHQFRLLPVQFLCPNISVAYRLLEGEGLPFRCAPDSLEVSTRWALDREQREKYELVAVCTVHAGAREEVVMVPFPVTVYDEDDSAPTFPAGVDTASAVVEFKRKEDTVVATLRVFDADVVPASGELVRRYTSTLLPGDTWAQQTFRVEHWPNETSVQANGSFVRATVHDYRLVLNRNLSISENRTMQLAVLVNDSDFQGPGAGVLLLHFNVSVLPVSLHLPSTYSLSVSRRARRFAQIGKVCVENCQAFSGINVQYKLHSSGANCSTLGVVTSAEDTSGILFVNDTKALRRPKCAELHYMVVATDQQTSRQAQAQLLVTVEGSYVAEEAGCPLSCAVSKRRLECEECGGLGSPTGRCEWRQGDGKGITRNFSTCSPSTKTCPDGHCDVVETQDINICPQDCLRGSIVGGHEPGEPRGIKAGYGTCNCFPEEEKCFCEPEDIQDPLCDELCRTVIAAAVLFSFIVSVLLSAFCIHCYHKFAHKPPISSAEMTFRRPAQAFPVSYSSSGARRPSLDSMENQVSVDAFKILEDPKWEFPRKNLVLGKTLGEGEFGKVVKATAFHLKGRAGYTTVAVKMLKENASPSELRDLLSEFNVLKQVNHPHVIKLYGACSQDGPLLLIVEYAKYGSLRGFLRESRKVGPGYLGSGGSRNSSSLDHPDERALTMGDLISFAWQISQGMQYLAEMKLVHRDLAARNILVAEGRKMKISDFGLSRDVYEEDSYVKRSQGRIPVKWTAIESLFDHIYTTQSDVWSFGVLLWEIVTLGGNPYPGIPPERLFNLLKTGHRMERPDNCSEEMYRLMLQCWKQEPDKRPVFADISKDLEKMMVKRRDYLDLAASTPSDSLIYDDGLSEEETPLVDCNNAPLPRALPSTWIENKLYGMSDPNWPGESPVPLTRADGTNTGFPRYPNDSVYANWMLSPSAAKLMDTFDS

[27] = molecular target: 5-hydroxytryptamine receptor 1B (Homo sapiens) (UniProt P28222); conditions: Compound concentration 10.0 uM
[28] = molecular target: Serine/threonine-protein kinase/endoribonuclease IRE1 (Homo sapiens) (UniProt O75460); conditions: Compound concentration 1000.0 nM
Chain of Serine/threonine-protein kinase/endoribonuclease IRE1 (Homo sapiens) (O75460 19-977 limits assumed): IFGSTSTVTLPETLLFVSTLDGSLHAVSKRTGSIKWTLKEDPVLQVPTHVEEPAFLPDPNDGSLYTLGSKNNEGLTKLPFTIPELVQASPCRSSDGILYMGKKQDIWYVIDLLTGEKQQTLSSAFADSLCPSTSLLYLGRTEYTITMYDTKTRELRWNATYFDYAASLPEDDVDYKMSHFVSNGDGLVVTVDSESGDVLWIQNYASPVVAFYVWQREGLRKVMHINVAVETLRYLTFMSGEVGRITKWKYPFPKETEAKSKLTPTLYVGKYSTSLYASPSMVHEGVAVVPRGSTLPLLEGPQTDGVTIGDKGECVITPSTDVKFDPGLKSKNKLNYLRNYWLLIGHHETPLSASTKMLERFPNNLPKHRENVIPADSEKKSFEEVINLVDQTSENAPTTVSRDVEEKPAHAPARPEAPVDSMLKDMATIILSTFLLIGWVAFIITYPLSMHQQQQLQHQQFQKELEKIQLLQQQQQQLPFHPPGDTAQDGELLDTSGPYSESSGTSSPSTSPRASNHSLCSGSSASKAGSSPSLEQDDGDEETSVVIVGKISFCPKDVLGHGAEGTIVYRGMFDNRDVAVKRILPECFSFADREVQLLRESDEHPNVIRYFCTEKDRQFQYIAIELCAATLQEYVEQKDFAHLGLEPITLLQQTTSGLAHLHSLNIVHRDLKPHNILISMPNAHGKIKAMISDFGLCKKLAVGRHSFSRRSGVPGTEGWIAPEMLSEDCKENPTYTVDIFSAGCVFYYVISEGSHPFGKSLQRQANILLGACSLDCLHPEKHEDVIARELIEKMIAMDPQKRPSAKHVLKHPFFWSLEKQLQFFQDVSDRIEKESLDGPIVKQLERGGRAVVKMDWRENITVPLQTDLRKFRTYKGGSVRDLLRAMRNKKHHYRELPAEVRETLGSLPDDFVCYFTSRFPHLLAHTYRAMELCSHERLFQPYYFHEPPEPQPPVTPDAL

[29] = molecular target: Calcium/calmodulin-dependent protein kinase type II subunit beta (Homo sapiens) (UniProt Q13554); conditions: Compound concentration 1000.0 nM
[30] = molecular target: Muscle, skeletal receptor tyrosine-protein kinase (Homo sapiens) (UniProt O15146); conditions: Compound concentration 1000.0 nM
[31] = test system: Epidermal growth factor receptor (Homo sapiens), P00533 [UNDEFINED MUTATION]; conditions: Compound concentration 1000.0 nM
Chain of Epidermal growth factor receptor (Homo sapiens), P00533 [UNDEFINED MUTATION] (P00533 whole entry, looked up, change not shown): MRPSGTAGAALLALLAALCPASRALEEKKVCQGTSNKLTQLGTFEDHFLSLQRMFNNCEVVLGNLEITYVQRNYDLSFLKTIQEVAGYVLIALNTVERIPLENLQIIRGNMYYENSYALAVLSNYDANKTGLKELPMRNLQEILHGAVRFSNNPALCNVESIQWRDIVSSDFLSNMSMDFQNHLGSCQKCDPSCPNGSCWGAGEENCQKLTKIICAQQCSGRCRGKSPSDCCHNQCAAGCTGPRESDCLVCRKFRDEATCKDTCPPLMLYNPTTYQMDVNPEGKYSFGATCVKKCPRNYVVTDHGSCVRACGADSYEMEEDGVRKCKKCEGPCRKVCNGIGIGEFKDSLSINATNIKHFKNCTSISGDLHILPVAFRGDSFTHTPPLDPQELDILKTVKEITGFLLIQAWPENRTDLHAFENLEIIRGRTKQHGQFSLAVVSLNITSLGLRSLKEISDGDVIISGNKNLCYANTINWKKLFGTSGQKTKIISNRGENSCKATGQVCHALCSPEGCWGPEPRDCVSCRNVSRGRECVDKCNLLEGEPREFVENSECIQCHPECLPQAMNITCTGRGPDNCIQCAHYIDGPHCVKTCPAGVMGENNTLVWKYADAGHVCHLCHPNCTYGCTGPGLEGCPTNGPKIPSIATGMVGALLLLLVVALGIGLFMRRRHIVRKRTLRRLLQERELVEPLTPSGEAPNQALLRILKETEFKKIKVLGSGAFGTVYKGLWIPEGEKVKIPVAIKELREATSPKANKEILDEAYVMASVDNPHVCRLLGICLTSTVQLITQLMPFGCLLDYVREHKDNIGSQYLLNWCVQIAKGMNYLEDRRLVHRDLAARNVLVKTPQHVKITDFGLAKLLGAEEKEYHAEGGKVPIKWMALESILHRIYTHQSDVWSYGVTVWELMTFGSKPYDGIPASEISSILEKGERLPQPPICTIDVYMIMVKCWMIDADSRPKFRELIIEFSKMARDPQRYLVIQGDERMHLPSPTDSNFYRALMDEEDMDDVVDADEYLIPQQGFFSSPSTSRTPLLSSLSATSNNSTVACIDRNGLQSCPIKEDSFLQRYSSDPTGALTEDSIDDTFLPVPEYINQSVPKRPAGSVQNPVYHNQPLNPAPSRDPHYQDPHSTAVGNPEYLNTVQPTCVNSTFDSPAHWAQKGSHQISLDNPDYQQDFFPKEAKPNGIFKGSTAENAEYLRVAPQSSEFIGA

[32] = molecular target: Mitogen-activated protein kinase 3 (Homo sapiens) (UniProt P27361); conditions: Compound concentration 1000.0 nM
[33] = molecular target: Glycogen synthase kinase-3 beta (Homo sapiens) (UniProt P49841); conditions: Compound concentration 1000.0 nM
[34] = molecular target: Serine/threonine-protein kinase SIK1 (Homo sapiens) (UniProt P57059); conditions: Compound concentration 1000.0 nM
[35] = molecular target: 5'-AMP-activated protein kinase catalytic subunit alpha-2 (Homo sapiens) (UniProt P54646); conditions: Compound concentration 1000.0 nM
[36] = molecular target: Serine/threonine-protein kinase mTOR (Homo sapiens) (UniProt P42345); conditions: Compound concentration 1000.0 nM
[37] = molecular target: Ribosomal protein S6 kinase alpha-3 (Homo sapiens) (UniProt P51812); conditions: Compound concentration 1000.0 nM
[38] = molecular target: Ankyrin repeat and protein kinase domain-containing protein 1 (Homo sapiens) (UniProt Q8NFD2); conditions: Compound concentration 1000.0 nM
[39] = molecular target: Receptor tyrosine-protein kinase erbB-3 (Homo sapiens) (UniProt P21860); conditions: Compound concentration 1000.0 nM
[40] = molecular target: Insulin-like growth factor 1 receptor (Homo sapiens) (UniProt P08069); conditions: Compound concentration 1000.0 nM
[41] = molecular target: Cyclin-dependent kinase 11A (Homo sapiens) (UniProt Q9UQ88); conditions: Compound concentration 1000.0 nM
[42] = molecular target: 5'-AMP-activated protein kinase catalytic subunit alpha-1 (Homo sapiens) (UniProt Q13131); conditions: Compound concentration 1000.0 nM
[43] = molecular target: Platelet-derived growth factor receptor beta (Homo sapiens) (UniProt P09619); conditions: Compound concentration 1000.0 nM

O=C(NC[C@@H]1[C@H]2CN(C(=O)OCc3cc(C(F)(F)F)cc(C(F)(F)F)c3)C[C@@H]12)c1ccc2[nH]nnc2c1 [BI 2545]
inactive: residual activity [1] 98% | inhibition [2] 27.8% | residual activity [3] 91% | residual activity [4] 93% | residual activity [5] 78% | residual activity [6] 94% | residual activity [7] 100% | residual activity [8] 81% | residual activity [9] 72% | residual activity [10] 100% | residual activity [11] 89% | residual activity [12] 100% | residual activity [13] 100% | residual activity [14] 94% | residual activity [15] 100% | residual activity [16] 100% | inhibition [17] -4.02% | residual activity [18] 100% | residual activity [19] 87% | residual activity [20] 83% | residual activity [21] 98% | residual activity [22] 88% | residual activity [23] 97% | residual activity [24] 100% | residual activity [25] 100% | residual activity [26] 100% | inhibition [27] 17.9% | residual activity [28] 77% | residual activity [29] 100% | residual activity [30] 77% | residual activity [31] 100% | residual activity [32] 100% | residual activity [33] 98% | residual activity [34] 100% | residual activity [35] 100% | residual activity [36] 100% | residual activity [37] 94% | residual activity [38] 73% | residual activity [39] 96% | residual activity [40] 100% | residual activity [41] 100% | residual activity [42] 100% | residual activity [43] 90%

Cc1nccc(COC(=O)N2C[C@@H]3[C@@H](CNC(=O)c4ccc5[nH]nnc5c4)[C@@H]3C2)n1 [BI 3017]
inactive: residual activity [1] 97% | inhibition [2] 9.47% | residual activity [3] 100% | residual activity [4] 95% | residual activity [5] 100% | residual activity [6] 66% | residual activity [7] 92% | residual activity [8] 78% | residual activity [9] 94% | residual activity [10] 91% | residual activity [11] 92% | residual activity [12] 99% | residual activity [13] 94% | residual activity [14] 91% | residual activity [15] 100% | residual activity [16] 100% | inhibition [17] 14.2% | residual activity [18] 72% | residual activity [19] 99% | residual activity [20] 100% | residual activity [21] 99% | residual activity [22] 85% | residual activity [23] 90% | residual activity [24] 100% | residual activity [25] 82% | residual activity [26] 100% | inhibition [27] 4.4% | residual activity [28] 90% | residual activity [29] 90% | residual activity [30] 100% | residual activity [31] 87% | residual activity [32] 92% | residual activity [33] 100% | residual activity [34] 98% | residual activity [35] 97% | residual activity [36] 96% | residual activity [37] 100% | residual activity [38] 100% | residual activity [39] 59% | residual activity [40] 93% | residual activity [41] 100% | residual activity [42] 92% | residual activity [43] 84%
